From patent publication US12448388B2, “PRMT5 inhibitors and uses thereof” (Gilead Sciences, Inc., priority 2023, dated 2025)

What follows are compounds tested on HCT116 MTAP-deleted cell lines (assay: Cell viability assay (CellTiter-Glo, 7 days), HCT116 MTAP-deleted). Settings: Homo sapiens, HCT-116; cell viability assay, HCT116 MTAP-deleted; class symbols; read-out: CC50.
Format: cell-based
Outline: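 CC50 values come from 7-day CellTiter-Glo viability measurements on cells exposed to a dose range of PRMT5 inhibitors dispensed from DMSO stocks.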
Compound Cc1ncc2c(N)nc3cc(F)c(C(=O)N(Cc4ccc(C(F)(F)F)cn4)C4(C)CC4)cc3n12 [Ff-589, 4-amino-7-fluoro-1-methyl-N-(1-methylcyclopropyl)-N-((5-(trifluoromethyl)pyridin-2-yl)methyl)imidazo[1,5-a]quinoxaline-8-carboxamide] has a CC50 of less than 100 nM.
Nc1nc2cc(F)c(C(=O)N3CCC[C@@H]4Oc5cc(C(F)(F)F)ccc5[C@@H]43)cc2n2c(F)ncc12 [Ff-622, (4-amino-1,7-difluoroimidazo[1,5-a]quinoxalin-8-yl)((4aS,9bS)-7-(trifluoromethyl)-3,4,4a,9b-tetrahydrobenzofuro[3,2-b]pyridin-1(2H)-yl)methanone] gave a CC50 of less than 100 nM.
Compound Nc1nc2cnc(C(=O)N3CC4(CCC4)C[C@@H]4Oc5cc(C(F)(F)F)ccc5[C@@H]43)cc2n2cncc12 (racemic) [Ff-688, Rac-(4-aminoimidazo[1,5-a]pyrido[3,4-e]pyrazin-8-yl)((4aS,9bS)-7-(trifluoromethyl)-4a,9b-dihydro-2H-spiro[benzofuro[3,2-b]pyridine-3,1′-cyclobutan]-1(4H)-yl)methanone] has a CC50 of less than 100 nM.
Compound CN(C(=O)c1cc2c(cc1F)nc(N)c1cncn12)[C@H]1c2ccc(-c3cnn(C(F)F)c3)cc2C[C@H]1OC(F)F [Ff-583, 4-amino-N-((1S,2R)-2-(difluoromethoxy)-5-(1-(difluoromethyl)-1H-pyrazol-4-yl)-2,3-dihydro-1H-inden-1-yl)-7-fluoro-N-methylimidazo[1,5-a]quinoxaline-8-carboxamide] has a CC50 of 100 to 1000 nM.
CN(C(=O)c1cc2c(cc1F)nc(N)c1cncn12)[C@@H]1COc2cc(C3COC3)ccc21 [Ff-573, (S)-4-amino-7-fluoro-N-methyl-N-(6-(oxetan-3-yl)-2,3-dihydrobenzofuran-3-yl)imidazo[1,5-a]quinoxaline-8-carboxamide] gave a CC50 of 100 to 1000 nM.
For Cc1ncn2c1c(N)nc1cc(F)c(C(=O)N(C)[C@@H]3COc4cc([C@@H]5C[C@H]5C#N)c(F)cc43)cc12 [Ff-450, Trans-4-amino-N-[(3S)-6-(2-cyanocyclopropyl)-5-fluoro-2,3-dihydrobenzofuran-3-yl]-7-fluoro-N,3-dimethyl-imidazo[1,5-a]quinoxaline-8-carboxamide], the CC50 was less than 100 nM.
CC(C)N(Cc1ccc(-c2ccc(OC(F)F)cc2)cc1F)C(=O)c1cc2c(cc1F)nc(N)c1cncn12 [Ff-591, 4-amino-N-((4′-(difluoromethoxy)-3-fluoro-[1,1′-biphenyl]-4-yl)methyl)-7-fluoro-N-isopropylimidazo[1,5-a]quinoxaline-8-carboxamide] showed a CC50 of less than 100 nM.
Nc1nc2cnc(C(=O)N3CC[C@H]4C[C@@H]3c3ccc(OC(F)(F)F)cc3O4)cc2n2cncc12 (racemic) [Ff-373, Rac-(4-aminoimidazo[1,5-a]pyrido[3,4-e]pyrazin-8-yl)((2S,6R)-9-(trifluoromethoxy)-3,4-dihydro-2H-2,6-methanobenzo[b][1,5]oxazocin-5(6H)-yl)methanone] was tested, and the CC50 was less than 100 nM.
In the case of CC1(C)C[C@@H]2Oc3nc(C(F)(F)F)ccc3[C@@H]2N(C(=O)c2cc3c(cc2F)nc(N)c2cncn23)C1 (racemic) [Ff-384, Rac-(4-amino-7-fluoroimidazo[1,5-a]quinoxalin-8-yl)((4aS,9bS)-3,3-dimethyl-7-(trifluoromethyl)-3,4,4a,9b-tetrahydrofuro[2,3-b:4,5-b′]dipyridin-1(2H)-yl)methanone], the CC50 is reported as less than 100 nM.
For C[C@@H]1CN(C(=O)c2cc3c(cc2F)nc(N)c2cncn23)[C@@H](c2cccc(C(F)F)n2)CO1 (single isomer, unassigned) [Ff-668], the CC50 was 100 to 1000 nM.
In the case of CN(C(=O)c1cc2c(cc1F)nc(N)c1cncn12)[C@@H]1COc2cc(C(F)(F)F)cc(F)c21 (single isomer, unassigned) [Ff-601], the CC50 is reported as less than 100 nM.
Compound Nc1nc2cnc(C(=O)N3CCC[C@@H]4Oc5cc(Cl)ccc5[C@@H]43)cc2n2cncc12 [Fg-28, (4-aminoimidazo[1,5-a]pyrido[3,4-e]pyrazin-8-yl)((4aS,9bS)-7-chloro-3,4,4a,9b-tetrahydrobenzofuro[3,2-b]pyridin-1(2H)-yl)methanone] has a CC50 of less than 100 nM.

Same assay, conditions: Homo sapiens, HCT-116; cell viability, HCT116 MTAP-deleted; class symbols; read-out: CC50
For Nc1nc2cc(F)c(C(=O)N3CCO[C@@H]4Cc5cc(C6CC6)ccc5[C@@H]43)cc2n2cncc12 [Ff-236, (4-amino-7-fluoroimidazo[1,5-a]quinoxalin-8-yl)((4aS,9aR)-7-cyclopropyl-2,3,9,9a-tetrahydroindeno[2,1-b][1,4]oxazin-4(4aH)-yl)methanone], the CC50 was 100 to 1000 nM.
Compound CC(C)N(Cc1ccc(Oc2ccccc2)cc1)C(=O)c1ccc2nc(N)c3cncn3c2c1 [Ff-57, 4-amino-N-isopropyl-N-(4-phenoxybenzyl)imidazo[1,5-a]quinoxaline-8-carboxamide] has a CC50 of 100 to 1000 nM.
With Cc1ncc2c(N)nc3ccc(C(=O)N4CCC5(CC4)C(=O)Nc4ccccc45)cc3n12 [Ff-65, 1′-(4-amino-1-methylimidazo[1,5-a]quinoxaline-8-carbonyl)spiro[indoline-3,4′-piperidin]-2-one] the CC50 was greater than 1000 nM.
Compound CN(C(=O)c1cc2c(cc1F)nc(N)c1cncn12)[C@@H]1COc2cc(-c3csc(C(F)F)n3)ccc21 [Ff-237, (S)-4-amino-N-(6-(2-(difluoromethyl)thiazol-4-yl)-2,3-dihydrobenzofuran-3-yl)-7-fluoro-N-methylimidazo[1,5-a]quinoxaline-8-carboxamide] has a CC50 of less than 100 nM.
Nc1nc2cnc(C(=O)N3CCO[C@@H]4Cc5c(cc(F)c(Br)c5F)[C@@H]43)cc2n2cncc12 [Ff-162, (4-aminoimidazo[1,5-a]pyrido[3,4-e]pyrazin-8-yl)((4aS,9aR)-7-bromo-6,8-difluoro-2,3,9,9a-tetrahydroindeno[2,1-b][1,4]oxazin-4(4aH)-yl)methanone] gave a CC50 of 100 to 1000 nM.
Work on CC(=O)N1CCN(C(=O)c2cc3c(cc2F)nc(N)c2cncn23)C(c2ccc(C(F)(F)F)cn2)C1 (centres unmarked) [Ff-134, 1-(4-(4-amino-7-fluoroimidazo[1,5-a]quinoxaline-8-carbonyl)-3-(5-(trifluoromethyl)pyridin-2-yl)piperazin-1-yl)ethan-1-one] yielded a CC50 of 100 to 1000 nM.
Compound Nc1nc2cc(F)c(C(=O)N3C[C@H](F)CC4Oc5cc(C(F)(F)F)ccc5[C@@H]43)cc2n2cncc12 (mixture of isomers) [Ff-112, Rac-(4-amino-7-fluoroimidazo[1,5-a]quinoxalin-8-yl)((3R,4aS,9bS)-3-fluoro-7-(trifluoromethyl)-3,4,4a,9b-tetrahydrobenzofuro[3,2-b]pyridin-1(2H)-yl)methanone] has a CC50 of less than 100 nM.
In the case of Nc1nc2cnc(C(=O)N3CCOC[C@@H]3c3ccc(C(F)(F)F)cc3)cc2n2cncc12 [Ff-86, (S)-(4-aminoimidazo[1,5-a]pyrido[3,4-e]pyrazin-8-yl)(3-(4-(trifluoromethyl)phenyl)morpholino)methanone], the CC50 is reported as less than 100 nM.
Work on Nc1nc2cc(F)c(C(=O)N3CC(F)(F)CC[C@H]3c3ccc(C(F)(F)F)cn3)cc2n2cncc12 (single isomer, unassigned) [Ff-243] yielded a CC50 of 100 to 1000 nM.
In the case of C[C@@H]1CN(C(=O)c2cc3c(cn2)nc(N)c2cncn23)[C@H]2c3ccc(OC(F)(F)F)c(F)c3C[C@H]2O1 (single isomer, unassigned) [Ff-193], the CC50 is reported as 100 to 1000 nM.
With Nc1nc2cc(F)c(C(=O)N3CCC[C@@H]4OCc5cc(-c6ccn(C(F)F)n6)ccc5[C@@H]43)cc2n2cncc12 (racemic) [Ff-298, Rac-(4-amino-7-fluoroimidazo[1,5-a]quinoxalin-8-yl)((4aS,10bS)-8-(1-(difluoromethyl)-1H-pyrazol-3-yl)-2,3,4,4a,6,10b-hexahydro-1H-isochromeno[4,3-b]pyridin-1-yl)methanone] the CC50 was less than 100 nM.
